We go through six compounds from article PMC6443668, “Chiral phenoxyacetic acid analogues inhibit colon cancer cell proliferation acting as PPARγ partial agonists” (Scientific Reports, 2019).

Series [1] has as its system HT-29 cells. Nature of the series: Viability / proliferation assay in HT-29 cells (cell counting). To be noted: for Residual viability: remaining surviving cells.
Source text: We then evaluated the antiproliferative potential of the compounds by carrying out viability assays in HT-29, a CRC-derived cell line selected as it expresses substantial amounts of PPARγ1 with respect to the α and β/δ subtypes.
After treatment, the cells were washed with PBS, trypsinized and collected in culture medium. Cells were counted by means of a Burker’s hemocytometer and by automated cell counter (Roche Applied, Penzberg, Germany)[60].
Proliferation assay carried out on HT-29 cells treated or not with the indicated compounds at different concentrations ranging from 1 to 10 µM for 48 hs. HT-29 cells exposed or not to these compounds were harvested, washed with PBS, trypsinized and collected in culture medium. Cell counting was performed by means of a Burker’s hemocytometer. Three counts for each well were made and the mean value and the standard deviation were calculated.
The next series concerns the target T1, PPARγ1 (Homo sapiens, UniProt P37231).
T1 construct: a fixed and higher amount of an exogenous, full length PPARγ1; expressed in transfected cells
T1 sequence (P37231 1-477 isoform P37231-2): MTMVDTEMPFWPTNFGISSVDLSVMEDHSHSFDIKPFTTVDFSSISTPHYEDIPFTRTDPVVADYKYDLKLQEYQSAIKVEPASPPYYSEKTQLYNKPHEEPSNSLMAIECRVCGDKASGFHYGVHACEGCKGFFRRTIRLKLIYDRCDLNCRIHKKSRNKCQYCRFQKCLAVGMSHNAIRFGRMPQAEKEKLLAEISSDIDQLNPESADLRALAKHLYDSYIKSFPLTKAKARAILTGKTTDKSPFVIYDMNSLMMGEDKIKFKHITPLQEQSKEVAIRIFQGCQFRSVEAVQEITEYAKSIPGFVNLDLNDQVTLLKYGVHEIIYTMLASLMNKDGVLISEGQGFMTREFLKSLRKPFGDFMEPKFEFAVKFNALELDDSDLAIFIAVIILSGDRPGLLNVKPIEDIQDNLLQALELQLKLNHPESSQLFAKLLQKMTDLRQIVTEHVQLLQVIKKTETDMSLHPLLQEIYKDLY
Description: PPRE-Luciferase reporter transactivation in HEK293 cells expressing PPARγ1. It counts as cell-based. The note with it: for Efficacy: PPARγ transactivation with respect to the full agonist RGZ taken as 100%; for EC50: PPARγ transactivation, PPRE-Luc reporter, HEK293 expressing PPARγ1, 24 hs treatment. Here is the method:
These cells were selected as a model system because they express low levels of the endogenous PPAR subtypes and a fixed and higher amount of an exogenous, full length PPARγ1; the differences in luciferase activity can, thus, be referred to PPARγ1 and to the different ligands used. Twenty-four hours after transfection, cells were treated for additional 24 hs with increasing doses of each compound (Table 2).
HEK293 cells that stably express an exogenous Flag-tagged PPARγ1 from a transfected PCDNA-3 vector carrying a complete PPARγ cDNA were used for transfection experiments. PPRE-Luc plasmid contains a luciferase reporter gene whose transcription is driven by the herpes simplex thymidine kinase (TK) promoter including three copies of the PPRE designed on the sequence of Acyl-CoA oxidase gene. […] The day before transfection, HEK293 stably expressing FLAG-PPARγ1 were plated in 12-well plates to reach 70% confluence. After 24 hs, growth medium was removed and substitute with OPTI-MEM, in absence of serum and antibiotics, and cells were transfected with the luciferase reporter gene (PPRE-Luc) using lipofectamine 2000 reagent as described. […] Transfection assays were performed in triplicate and the resulting transcriptional activities measured by luciferase assay. The values were normalized by β-galactosidase assay and the average value for each triplicate was calculated.
(A reporter such as luciferase makes a cellular process visible.)

The subject of a further series is c-Myc. Description: Western blotting of c-Myc in HT-29 cells. It counts as cell-based, human. To be noted: 10 µM, 48 hs. The protocol: (§1) Proliferating HT-29 cells were treated for 48 hs with 10 µM of the indicated compounds. Specific antibodies against cyclin D1 (A), c-Myc (B), β-catenin (C) and PPARγ (D) respectively, were used in Western blotting analysis. An anti-β-actin antibody was used as a control for protein loading. The graphs of (A) and (B) represent the means ± SD of three independent experiments. **p ≤ 0.01, ***p ≤ 0.005 compared to the control. The bar graphs of (C,D) are the means ± SD of three independent experiments. *p ≤ 0.05 compared to the control. […] Luciferase activity is reported as fold induction after normalization to β-galactosidase activity used as control of transfection efficiency. The graph represents the mean ± SD of two independent experiments performed in triplicate. *p ≤ 0.05 compared to LiCl exposure.
(§2) Indeed, cyclin D1 and c-Myc are target genes[38],[39] and, for these reasons, we evaluated c-Myc levels in untreated and treated HT-29 cells. […] Along this reasoning, we investigated β-catenin levels in the same experimental conditions. […]
(§3) Total extracts from treated and untreated cells were obtained by lysis in Ripa buffer (150 mM NaCl, 50 mM Tris-HCl, pH 7.6, 10 mM EDTA, 1% NP-40) containing also a protease inhibitors cocktail and then centrifugated at 17,000 RCF for 10 min, at 4 °C. Total proteins in the supernatant were quantified and 80 μg of each sample were loaded on SDS-PAGE. […]

A further series has as its system β-catenin/TCF pathway. Description: Top-FLASH reporter luciferase assay in LiCl-induced HEK-293 cells. In kind it is cell-based. The note with it: HEK-293, Top-FLASH, 20 mM LiCl plus 1 µM compound, 24 hs, relative to LiCl alone. The protocol:
as §1
To definitely confirm that (R,S)-3 and (S)-3 negatively affect c-Myc and cyclin D1 protein levels through down-regulation of their own gene transcription, we performed the TOP-flash reporter luciferase assay in LiCl-induced HEK-293 cells. […]
The Top-FLASH reporter plasmid containing three copies of TCF binding sites was transiently transfected into HEK293 cells with Lipofectamine 2000 (Invitrogen, Carlsbad, CA, USA) in 24-well plates. […] Luciferase activity was measured after 24 h of compounds treatment and normalized to β-galactosidase. […]

The subject of series [2] is HT-29 cells. Description: Annexin V-FITC / propidium iodide apoptosis flow cytometry in HT-29 cells. It counts as cell-based, human. The note with it: 10 µM, 48 hs. The protocol:
(§4) (B) Early (Ann+/PI−) and late (Ann+/PI+) apoptotic cell populations were evaluated and reported in the graphic representation. The bar graphs are the means ± SD of three independent experiments. *p ≤ 0.05, **p ≤ 0.01, ***p ≤ 0.005 compared to the control. […] An anti-β-actin antibody was used as a control for protein loading. Significance is indicated as *p ≤ 0.05 compared to only vehicle. […] It is listed because a value is printed with its label.
(§5) HT-29 cells were plated at similar confluency and synchronized by a 48 h serum deprivation in 0.1% FBS. […] At same time, another aliquot of cells was allowed to grow again in the complete medium containing 0,1% DMSO for the same times and was used as control. After treatment, DNA cell content was evaluated by FACS analysis as previously described. Evaluation of apoptotic cells was performed by staining cell treated or not with 10 μM of the indicated compounds for 48 hs with Annexin5-V-Fitc and propidium iodide. All flow cytometry results were analyzed by FACSuite Software.

For another series, the system named is β-catenin. Nature of the series: Western blotting of β-catenin in HT-29 cells. In kind it is cell-based, human. To be noted: 10 µM, 48 hs. The protocol: as §1, §2, §3
Series [3] concerns p21^waf1/cip1. Nature of the series: Western blotting of p21waf1/cip1 in parental RKO cells (no endogenous PPARG). To be noted: 10 µM, 48 hs. In kind it is cell-based, human. The text has this: (§6) RKO cells were taken as control for assessing possible effects due to other PPAR receptors expressed at low levels in this cell or to PPARγ-independent effects elicited by GW9662, as reported.
(§7) Figure 4 PPARγ-dependent antiproliferative effect in CRC-derived RKO cells. Western blotting analysis of p21^waf1/cip1 expression in total protein extracts from CRC-derived RKO cells (A) and its derived clone overexpressing an ectopic PPARγ1 (B) using an anti-p21^waf1/cip1 antibody. An anti-β-actin antibody was used as a control for protein loading. The bar graphs represent the mean ± SD of […] of at least 3 independent experiments. *p ≤ 0.05, **p ≤ 0.01 compared to the control.
(§8) Total extracts from treated and untreated cells were obtained by lysis in Ripa buffer (150 mM NaCl, 50 mM Tris-HCl, pH 7.6, 10 mM EDTA, 1% NP-40) containing also a protease inhibitors cocktail and then centrifugated at 17,000 RCF for 10 min, at 4 °C. Total proteins in the supernatant were quantified and 80 μg of each sample were loaded on SDS-PAGE. Western blotting assays were carried out as previously reported.

Series [4] has as its system p21^waf1/cip1. Description: Western blotting of p21waf1/cip1 in RKO cells stably transfected with PPARG1. It counts as cell-based, human.
Source text: as §6, §7, §8
A general note: Immunoblotting shows a protein as a band on a membrane.

The subject of the next series is cyclin D1. Nature of the series: Western blotting of cyclin D1 in HT-29 cells. It counts as cell-based, human. The note with it: 10 µM, 48 hs. Here is the method: (§9) To better characterize the growth inhibition elicited by (R,S)-3, (S)-3 and (R,S)-7, we examined changes in the expression of proteins involved in cell cycle control (Figs 1B and 2A). […] The results paralleled those of the corresponding proteins and all together correlated with the flow cytometric data obtained in the same experimental conditions as reported in Fig. 1.
as §1, with “The graph represents the mean ± SD of two independent experiments performed in triplicate. *p ≤ 0.05 compared to LiCl exposure.” left out
as §3

The test system of a further series is caspase 3. Description: Western blotting of caspase 3 in HT-29 cells. It counts as cell-based, human. To be noted: 10 µM, 48 hs. Here is the method: as §4, §8
Series [5] relates to HT-29 cells. Nature of the series: Cell cycle analysis by flow cytometry (propidium iodide) in HT-29 cells. It counts as cell-based, human. The note with it: 1 to 25 µM, 48 hs, FACS. Here is the method:
We then investigated the cell cycle changes underlying the growth inhibition caused by (R,S)-3, (S)-3 and (R,S)-7 treatment. To this goal, HT-29 cells were cultured in proliferating medium for 24 hs and exposed for additional 48 hs to a medium containing different concentrations of the three compounds.
(§10) Data are means ± SD of two independent experiments. *p ≤ 0.05, **p ≤ 0.01 compared to the control. (B) Proliferating HT-29 cells were treated or not for 48 hs with 10 µM of the indicated compounds. Protein extracts were prepared and assessed for p21^waf1/cip1 expression in Western blotting analysis. β-Actin was used for protein load normalization. The bar graphs are the mean ± SD of three independent experiments. **p ≤ 0.01 compared to the control.
as §5
(In general: A flow cytometer gives signals particle by particle.)

The test system of series [6] is p21^waf1/cip1. Nature of the series: Western blotting of p21waf1/cip1 in HT-29 cells. To be noted: 10 µM, 48 hs. It counts as cell-based, human. Here is the method: as §10, §9, §8
[7] abbreviates: read-out: Proliferation IC50, HT-29 cells, concentration range 1 to 25 µM.
The mark [8] stands for this setting: Homo sapiens, HT-29, read-out: Proliferation IC50.

What is called EC50 is the concentration giving half of the maximal effect.

Values joined by “and” are separate entries in the source; they are usually repeats but may differ in a detail not shown here. Equal entries are not always repeated. Where two headings read alike, the source gives them in different places.

Consider `O=C(O)C(CCCc1ccccc1)Oc1ccc(Cl)cc1` (racemic) [(R,S)-2], for which the Residual viability with HT-29 cells [1] (HT-29 cells) was determined as 70 ± 2.5%. In addition, the IC50 with HT-29 cells [1] (setting [7]) came to 12.1 ± 1.2 µM. At PPARγ1, the Efficacy amounted to 48 ± 2.1% and the concentration for a half-maximal effect (EC50) was 0.54 ± 0.1 µM.

As to `O=C(O)C(CCCCc1ccccc1)Oc1ccc(Cl)cc1` (racemic) [(R,S)-4], the Residual viability with HT-29 cells [1] (HT-29 cells) was determined as 60 ± 0.5%. Moreover, the IC50 in the series on HT-29 cells [1] (setting [7]) is 10.1 ± 0.4 µM. At PPARγ1, this compound registered an Efficacy of 60 ± 1.1% and an EC50 of 0.35 ± 0.07 µM.

Take `O=C(O)[C@@H](CCc1ccccc1)Oc1ccc(Cl)cc1` [(R)-1]: the Residual viability with HT-29 cells [1] (HT-29 cells) came out at 77 ± 3.1%. Further, in the series with HT-29 cells [1] (setting [7]), the IC50 was found to be 19.7 ± 1.7 µM. On PPARγ1, this compound displayed an Efficacy of 45 ± 1.3% and an EC50 of 0.64 ± 0.06 µM.

Consider `O=C(O)[C@H](CCCc1ccc(Cl)cc1)Oc1ccc(Cl)cc1` [(S)-3], for which the c-Myc protein level result with c-Myc is “reduction”. In addition, the “Luciferase activity remaining on co-treatment with LiCl” value with β-catenin/TCF pathway is on record as “about 60%”. For the same compound, in the series with HT-29 cells [2], the Apoptosis induction result was “stimulated apoptosis”. For the same compound, the β-catenin protein level result in the series with β-catenin is on record as “reduction”. The compound further had a Residual viability in the series with HT-29 cells [1] (HT-29 cells) of 31 ± 1.3%. The IC50 in the series on HT-29 cells [1] (setting [8]) came out at 4.8 ± 0.35 µM. Besides, in the series on p21^waf1/cip1 [3], the p21waf1/cip1 expression result was “no p21^waf1/cip1 variations”. For the same compound, the p21waf1/cip1 expression result in the series on p21^waf1/cip1 [4] (RKO clone expressing exogenous PPARγ1, 10 µM, 48 hs) is on record as “induced accumulation”. Also, in the series with cyclin D1, the “cyclin D1 protein level” value is listed as “reduction more evident”. Besides, on PPARγ1, the Efficacy was 55% and 55 ± 1.2%; the response was half-maximal at 0.4 ± 0.05 µM (EC50). Moreover, the “Caspase 3 activation (precursor reduced, cleaved form increased)” value in the series on caspase 3 is “strongest effect”. Also, in the series on HT-29 cells [5], the Cell cycle changes entry is recorded as “significant increase of cells in the sub G0/G1 phase”. The p21waf1/cip1 protein expression entry with p21^waf1/cip1 [6] was “robust increase”.

Take `O=C(Nc1ccccc1)c1cc([N+](=O)[O-])ccc1Cl` [GW9662, reference compound]: the “Effect of the antagonist on compound-induced p21waf1/cip1 accumulation” value in the series with p21^waf1/cip1 [4] (RKO clone expressing PPARγ1, co-treatment with (R,S)-3, (S)-3 or (R,S)-7) is on record as “reverted the effect”.

For the compound `CN(CCOc1ccc(CC2SC(=O)NC2=O)cc1)c1ccccn1` (centres unmarked) [RGZ, rosiglitazone, reference compound], the “Luciferase activity remaining on co-treatment with LiCl” value in the series on β-catenin/TCF pathway is 80%. Moreover, the Apoptosis induction entry in the series with HT-29 cells [2] is “stimulated apoptosis”. Also, the IC50 with HT-29 cells [1] (setting [8]) was 9.8 ± 0.4 µM. Moreover, the “cyclin D1 protein level” value with cyclin D1 was “reduction”. Further, in the series with p21^waf1/cip1 [6], the p21waf1/cip1 protein expression result is “slight”.
